Columns and labels:
MET kinase = biological target: T1, MET kinase (Homo sapiens, UniProt P08581); experiment: MET kinase assay (AlphaScreen, counter screen); format: biochemical; conditions: read-out: Ranking of IC50 values, MET
T1 construct: purchased SignalChem
Procedure: Because MET kinase belonged to Class VIII RTK family have one transmembrane a chain linked with one extracellular β chain which is different form Class III RTK family with 5 Immunoglobin-like extracellular domains. Standard assay conditions were 1 ng of recombinant MET kinase (SignalChem) with 3 ng Biotin-conjugated Poly-(Glu 4: Tyr 1) (Cisbio) in the assay buffer ([…], 10 mM MOPs, pH 7.0, 0.21 mM EDTA, 0.5% glycerol, 1 mg/mL BSA, 0.01% 2-mercaptoethanol, 0.001% Brij35, 10 mM MgCl2) in a final volume of 25 μL. Reactions were incubated at 30° C. for 45 min and stopped by adding 5 μL of 50 mM EDTA. Analysis of resulting product using an AlphaScreen kit and counted with Enspire Alpha (PerkinElmer). […] The IC50 values of inhibitors were determined after carrying out assays with each compound at serially diluted concentrations in duplication. The results were analyzed using linear regression software (GraphPad Prism 5; GraphPad Software Inc.)

[1] = test system: A375 melanoma cell with BRAF V600E mutation; experiment: A375 cell proliferation assay (counter screen); format: cell-based, human; conditions: Homo sapiens, A-375, A375 cells, 72 hours treatment, CellTiter96, read-out: anti-proliferation activity A375 BRAF V600E, IC50 ranking
Procedure: (§1) Inhibitions of cell growths by compounds were measured using CellTiter™-96 assay. The cytotoxicities of compounds of the invention were evaluated in cell line panels with different signaling pathway dependencies, including MV4-11 human acute myeloid leukemia cell with FLT3-ITD mutation, Molm-14 human acute myeloid leukemia cell with FLT3-ITD mutation, THP-1 human acute monocytic leukemia cell with NRAS G12D mutation, A375 melanoma cell with BRAF V600E mutation, and HCC827 NSCLC cell with EGFR exon 19 deletion mutation.
(§2) A375 cells are melanoma cells encoding BRFA V600E mutation, which renders the cell growth dependent on BRAF signaling instead of class III RTKs signaling. A375 cells (catalog #CRL-1619) were obtained from the ATCC. Briefly, cells were cultured in DMEM containing 10% FBS and incubated at 37° C. in 5% CO2 atmosphere. Cells were allowed to expand until reaching saturation, at which point they were sub-cultured or harvested for assay use.
(§3) MV4-11, Molm-14, THP-1, A375, and HCC827 cells were seeded into 96-well plates at 6500, 25000, 5000, 2000 and 8000 cells/well, respectively, and incubated at 37° C., 5% CO2 overnight. Then, these seeded cells were treated with increasing concentrations of the test compounds and incubated for another 72 hours. At the end of the incubation, CellTiter96® AQueous One Solution Reagent (Promega, […]) was added and incubated for the additional 2˜4 hours. Cell viability was determined by measuring absorbance at 490 nm using EMax® microplate reader (Molecular Devices, San Jose, CA, USA).

[2] = test system: HCC827 NSCLC cell with EGFR exon 19 deletion mutation; experiment: HCC827 cell proliferation assay (counter screen); format: cell-based, human; conditions: Homo sapiens, HCC827 cells, 72 hours treatment, CellTiter96, read-out: anti-proliferation activity HCC827 EGFR Exon19 del, IC50 ranking
Procedure: as §1
as §2, with “HCC827” for “A375”, “non-small cell lung carcinoma (NSCLC)” for “melanoma”, “EGFR exon 19 deletion” for “BRFA V600E”, “EGFR” for “BRAF”, “#CRL-2868)” for “#CRL-1619)”, “RPMI1640 medium supplemented with” for “DMEM containing”
as §3

[3] = test system: THP-1 human acute monocytic leukemia cell with NRAS G12D mutation; experiment: THP-1 cell proliferation assay (counter screen); format: cell-based; conditions: Homo sapiens, THP-1 cells, 72 hours treatment, CellTiter96, read-out: anti-proliferation activity THP-1 NRAS N12D, IC50 ranking
Procedure: as §1
THP-1 cells are human acute monocytic leukemia cells with NRAS G12D mutation, which renders the cell growth independent of class III RTKs signaling. THP-1 cells (catalog #TIB-202) were obtained from the ATCC. Briefly, cells were grown in RPMI 1640 medium supplemented with 10% heat inactivated fetal bovine serum and 0.05 mM 2-mercaptoethanol and incubated at 37° C. in 5% CO2 atmosphere. Cells were allowed to expand until reaching saturation, at which point they were sub-cultured or harvested for assay use.
as §3

[4] = test system: Molm-14 human acute myeloid leukemia cell with FLT3-ITD mutation; experiment: Molm-14 cell proliferation assay (CellTiter 96); format: cell-based; conditions: Homo sapiens; Molm-14 cells, 72 hours treatment, CellTiter96; read-out: anti-proliferation activity Molm-14 (FLT3-ITD), IC50 ranking
Procedure: as §1
The compounds disclosed herein were tested in Molm-14 cell proliferation assay to determine their cellular potencies against FLT3 signal pathway dependent cell growths. Molm-14 cells are human acute myeloid leukemia (AML) cells harboring ligand-independent FLT3-ITD activating mutation, which renders the abnormal proliferation of the AML cells FLT3 signaling pathway dependent. Inhibition of FLT3 kinase activity will result in reduced growths and/or cell deaths. […] Briefly, cells were grown in RPMI 1640 medium supplemented with 10% heat inactivated fetal bovine serum and incubated at 37° C. in 5% CO2 atmosphere. Cells were allowed to expand until reaching saturation, at which point they were sub-cultured or harvested for assay use.
as §3

T1 sequence (P08581 25-1390): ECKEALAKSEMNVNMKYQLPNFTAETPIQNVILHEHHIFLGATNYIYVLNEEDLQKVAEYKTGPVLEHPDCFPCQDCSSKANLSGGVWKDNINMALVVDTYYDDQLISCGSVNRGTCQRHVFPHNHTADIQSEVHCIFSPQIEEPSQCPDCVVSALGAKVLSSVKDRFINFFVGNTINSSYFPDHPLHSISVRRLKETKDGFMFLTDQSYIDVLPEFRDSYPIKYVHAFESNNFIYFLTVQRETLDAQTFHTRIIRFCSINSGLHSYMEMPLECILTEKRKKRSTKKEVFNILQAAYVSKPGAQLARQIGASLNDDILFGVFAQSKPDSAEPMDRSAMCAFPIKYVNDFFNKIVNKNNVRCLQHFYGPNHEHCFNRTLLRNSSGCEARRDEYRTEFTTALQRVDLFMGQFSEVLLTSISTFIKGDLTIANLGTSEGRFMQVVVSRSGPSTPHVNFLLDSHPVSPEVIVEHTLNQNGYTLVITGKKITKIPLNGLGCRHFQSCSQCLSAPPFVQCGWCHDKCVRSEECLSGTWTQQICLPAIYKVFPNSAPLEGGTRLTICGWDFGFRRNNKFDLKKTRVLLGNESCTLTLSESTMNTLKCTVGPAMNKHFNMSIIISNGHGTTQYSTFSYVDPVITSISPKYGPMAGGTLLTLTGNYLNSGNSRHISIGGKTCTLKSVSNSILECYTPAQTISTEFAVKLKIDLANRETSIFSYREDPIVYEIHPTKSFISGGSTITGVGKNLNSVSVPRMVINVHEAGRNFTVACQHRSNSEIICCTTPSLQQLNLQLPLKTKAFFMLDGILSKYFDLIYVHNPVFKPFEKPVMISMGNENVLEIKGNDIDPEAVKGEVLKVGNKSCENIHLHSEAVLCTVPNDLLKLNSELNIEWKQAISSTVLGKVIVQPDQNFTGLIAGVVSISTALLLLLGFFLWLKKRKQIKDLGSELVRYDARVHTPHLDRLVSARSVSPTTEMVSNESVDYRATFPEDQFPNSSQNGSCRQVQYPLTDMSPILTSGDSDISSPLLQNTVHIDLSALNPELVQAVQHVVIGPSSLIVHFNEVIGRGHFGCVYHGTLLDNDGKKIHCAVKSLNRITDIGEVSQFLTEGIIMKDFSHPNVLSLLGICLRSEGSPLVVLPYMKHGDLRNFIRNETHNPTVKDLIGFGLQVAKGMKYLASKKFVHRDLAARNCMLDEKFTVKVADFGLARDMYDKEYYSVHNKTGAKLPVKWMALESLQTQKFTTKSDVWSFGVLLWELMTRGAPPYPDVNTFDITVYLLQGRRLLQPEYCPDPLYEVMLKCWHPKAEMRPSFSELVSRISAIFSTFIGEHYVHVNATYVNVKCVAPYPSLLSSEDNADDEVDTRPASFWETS

| Compound | IC50 (MET kinase) | IC50 [1] | IC50 [2] | IC50 [3] | IC50 [4] |
| --- | --- | --- | --- | --- | --- |
| CC(C)Cn1ncc2ccc(-c3n[nH]c4c3Cc3sc(-c5ccc(CN6CCOCC6)cc5)cc3-4)cc21 [Compound 35, 4-(4-(3-(1-isobutyl-1H-indazol-6-yl)-1,4-dihydro-thieno[2′,3′:4,5]cyclopenta [1,2-c]pyrazol-6-yl)benzyl)morpholine] | > 1000 nM | > 10000 nM | > 10000 nM | 1000 to 10000 nM | 100 to 300 nM |
| Cn1ncc2ccc(-c3n[nH]c4c3Cc3sc(-c5ccc(CC6CCOCC6)cc5)cc3-4)cc21 [Compound 77, 3-(1-methyl-1H-indazol-6-yl)-6-(4-((tetrahydro-2H-pyran-4-yl)methyl)phenyl)-1,4-dihydrothieno [2′,3′:4,5]cyclopenta [1,2-c]pyrazole] | > 1000 nM | 1000 to 10000 nM | > 10000 nM | 1000 to 10000 nM | 100 to 300 nM |
| CN(C)c1ccc(-c2cc3c(s2)Cc2c(-c4ccc5cnn(C)c5c4)n[nH]c2-3)cn1 [Compound 5, N,N-dimethyl-5-(3-(1-methyl-1H-indazol-6-yl)-1,4-dihydrothieno [2′,3′:4,5]cyclopenta[1,2-c]pyrazol-6-yl)pyridin-2-amine] | > 1000 nM | > 10000 nM | > 10000 nM | > 10000 nM | 100 to 300 nM |
| Cc1cc(-c2cc3c(s2)Cc2c(-c4ccc5cnn(C)c5c4)n[nH]c2-3)ccc1CN1CCOCC1 [Compound 26, 4-(2-methyl-4-(3-(1-methyl-1H-indazol-6-yl)-1,4-dihydrothieno[2′,3′:4,5]cyclopenta[1,2-c]pyrazol-6-yl)benzyl)morpholine] | > 1000 nM | > 10000 nM | > 10000 nM | > 10000 nM | 100 to 300 nM |
| CN(c1ccc(-c2cc3c(s2)Cc2c(-c4ccc5cnn(C)c5c4)n[nH]c2-3)cc1)C1CCOCC1 [Compound 73, N-methyl-N-(4-(3-(1-methyl-1H-indazol-6-yl)-1,4-dihydrothieno [2′,3′:4,5]cyclopenta [1,2-c]pyrazol-6-yl)phenyl)tetrahydro-2H-pyran-4-amine] | > 1000 nM | > 10000 nM | > 10000 nM | > 10000 nM | 300 to 1000 nM |
| Cc1ccc(-c2cc3c(s2)Cc2c(-c4ccc5cnn(C)c5c4)n[nH]c2-3)cn1 [Compound 11, 3-(1-methyl-1H-indazol-6-yl)-6-(6-methylpyridin-3-yl)-1,4-dihydrothieno [2′,3′:4,5]cyclopenta[1,2-c] pyrazole] | > 1000 nM | > 10000 nM | > 10000 nM | > 10000 nM | 30 to 100 nM |
| CN1CCN(Cc2cccc(-c3cc4c(s3)Cc3c(-c5ccc6cnn(C)c6c5)n[nH]c3-4)c2)CC1 [Compound 14, 3-(1-methyl-1H-indazol-6-yl)-6-(3-((4-methylpiperazin-1-yl)methyl)phenyl)-1,4-dihydrothieno [2′,3′:4,5]cyclopenta[1,2-c] pyrazole] | > 1000 nM | 1000 to 10000 nM | > 10000 nM | > 10000 nM | 30 to 100 nM |
| Cn1ncc2ccc(-c3n[nH]c4c3Cc3sc(-c5ccc(CN6CC(F)(F)C6)cc5)cc3-4)cc21 [Compound 104, 6-(4-((3,3-difluoroazeti-din-1-yl)methyl)phenyl)-3-(1-methyl-1H-indazol-6-yl)-1,4-dihydrothieno [2′,3′:4,5]cyclopenta [1,2-c]pyrazole] | > 1000 nM | 1000 to 10000 nM | > 10000 nM | 1000 to 10000 nM | 100 to 300 nM |
| Cn1ncc2ccc(-c3n[nH]c4c3Cc3sc(-c5ccc(CN6CCOCC6)c(C(F)(F)F)c5)cc3-4)cc21 [Compound 27, 4-(4-(3-(1-methyl-1H-indazol-6-yl)-1,4-dihydrothieno[2′,3′:4,5]cyclopenta[1,2-c]pyrazol-6-yl)-2-(trifluoromethyl)benzyl)morpholine] | > 1000 nM | > 10000 nM | > 10000 nM | > 10000 nM | 1000 to 10000 nM |
| Cn1ncc2ccc(-c3n[nH]c4c3Cc3sc(-c5ccc(C=C6CCOCC6)cc5)cc3-4)cc21 [Compound 76, 3-(1-methyl-1H-indazol-6-yl)-6-(4-((tetrahydro-4H-pyran-4-ylidene)methyl)phenyl)-1,4-dihydrothieno[2′,3′:4,5] cyclopenta[1,2-c]pyrazole] | > 1000 nM | > 10000 nM | > 10000 nM | > 10000 nM | 300 to 1000 nM |
| Cn1ncc2ccc(-c3n[nH]c4c3Cc3sc(-c5ccc(CN6CCC(F)(F)C6)cc5)cc3-4)cc21 [Compound 67, 6-(4-((3,3-difluoro-pyrrolidin-1-yl)methyl)phenyl)-3-(1-methyl-1H-indazol-6-yl)-1,4-dihydro-thieno[2′,3′:4,5]cyclopenta [1,2-c]pyrazole] | > 1000 nM | > 10000 nM | > 10000 nM | > 10000 nM | 100 to 300 nM |
| Cn1ncc2ccc(-c3n[nH]c4c3Cc3sc(-c5cccc(OCCN6CCOCC6)c5)cc3-4)cc21 [Compound 70, 4-(2-(3-(3-(1-methyl-1H-indazol-6-yl)-1,4-dihydro-thieno[2′,3′:4,5]cyclopenta [1,2-c]pyrazol-6-yl)phenoxy)ethyl)morpholine] | > 1000 nM | > 10000 nM | > 10000 nM | > 10000 nM | 100 to 300 nM |

— patent US12448394B2, “Heterocyclic pyrazole derivatives as type III receptor tyrosine kinase inhibitors” (DEVELOPMENT CENTER FOR BIOTECHNOLOGY, priority 2019, dated 2025)
